In ChEMBL document CHEMBL6127013, “A chemical platform for the efficient screening of arylazopyrazole-based photoswitchable CENP-E inhibitors using mild cyclization reactions” (Bioorg Med Chem Lett, 2024):
pIC50: −log10 of the molar value. Activity calls are given as the source filed them. No cut-off for these calls is given here.

Legend:
HeLa = assay: Antiproliferative activity against human HeLa cells assessed as inhibition of cell proliferation; format: functional, cell-based
[1] = biological target: T1, Centromere-associated protein E (Homo sapiens, UniProt Q02224); assay: Inhibition of CENP-E (unknown origin) ATPase activity in absence of light illumination
T1 sequence (Q02224 whole entry): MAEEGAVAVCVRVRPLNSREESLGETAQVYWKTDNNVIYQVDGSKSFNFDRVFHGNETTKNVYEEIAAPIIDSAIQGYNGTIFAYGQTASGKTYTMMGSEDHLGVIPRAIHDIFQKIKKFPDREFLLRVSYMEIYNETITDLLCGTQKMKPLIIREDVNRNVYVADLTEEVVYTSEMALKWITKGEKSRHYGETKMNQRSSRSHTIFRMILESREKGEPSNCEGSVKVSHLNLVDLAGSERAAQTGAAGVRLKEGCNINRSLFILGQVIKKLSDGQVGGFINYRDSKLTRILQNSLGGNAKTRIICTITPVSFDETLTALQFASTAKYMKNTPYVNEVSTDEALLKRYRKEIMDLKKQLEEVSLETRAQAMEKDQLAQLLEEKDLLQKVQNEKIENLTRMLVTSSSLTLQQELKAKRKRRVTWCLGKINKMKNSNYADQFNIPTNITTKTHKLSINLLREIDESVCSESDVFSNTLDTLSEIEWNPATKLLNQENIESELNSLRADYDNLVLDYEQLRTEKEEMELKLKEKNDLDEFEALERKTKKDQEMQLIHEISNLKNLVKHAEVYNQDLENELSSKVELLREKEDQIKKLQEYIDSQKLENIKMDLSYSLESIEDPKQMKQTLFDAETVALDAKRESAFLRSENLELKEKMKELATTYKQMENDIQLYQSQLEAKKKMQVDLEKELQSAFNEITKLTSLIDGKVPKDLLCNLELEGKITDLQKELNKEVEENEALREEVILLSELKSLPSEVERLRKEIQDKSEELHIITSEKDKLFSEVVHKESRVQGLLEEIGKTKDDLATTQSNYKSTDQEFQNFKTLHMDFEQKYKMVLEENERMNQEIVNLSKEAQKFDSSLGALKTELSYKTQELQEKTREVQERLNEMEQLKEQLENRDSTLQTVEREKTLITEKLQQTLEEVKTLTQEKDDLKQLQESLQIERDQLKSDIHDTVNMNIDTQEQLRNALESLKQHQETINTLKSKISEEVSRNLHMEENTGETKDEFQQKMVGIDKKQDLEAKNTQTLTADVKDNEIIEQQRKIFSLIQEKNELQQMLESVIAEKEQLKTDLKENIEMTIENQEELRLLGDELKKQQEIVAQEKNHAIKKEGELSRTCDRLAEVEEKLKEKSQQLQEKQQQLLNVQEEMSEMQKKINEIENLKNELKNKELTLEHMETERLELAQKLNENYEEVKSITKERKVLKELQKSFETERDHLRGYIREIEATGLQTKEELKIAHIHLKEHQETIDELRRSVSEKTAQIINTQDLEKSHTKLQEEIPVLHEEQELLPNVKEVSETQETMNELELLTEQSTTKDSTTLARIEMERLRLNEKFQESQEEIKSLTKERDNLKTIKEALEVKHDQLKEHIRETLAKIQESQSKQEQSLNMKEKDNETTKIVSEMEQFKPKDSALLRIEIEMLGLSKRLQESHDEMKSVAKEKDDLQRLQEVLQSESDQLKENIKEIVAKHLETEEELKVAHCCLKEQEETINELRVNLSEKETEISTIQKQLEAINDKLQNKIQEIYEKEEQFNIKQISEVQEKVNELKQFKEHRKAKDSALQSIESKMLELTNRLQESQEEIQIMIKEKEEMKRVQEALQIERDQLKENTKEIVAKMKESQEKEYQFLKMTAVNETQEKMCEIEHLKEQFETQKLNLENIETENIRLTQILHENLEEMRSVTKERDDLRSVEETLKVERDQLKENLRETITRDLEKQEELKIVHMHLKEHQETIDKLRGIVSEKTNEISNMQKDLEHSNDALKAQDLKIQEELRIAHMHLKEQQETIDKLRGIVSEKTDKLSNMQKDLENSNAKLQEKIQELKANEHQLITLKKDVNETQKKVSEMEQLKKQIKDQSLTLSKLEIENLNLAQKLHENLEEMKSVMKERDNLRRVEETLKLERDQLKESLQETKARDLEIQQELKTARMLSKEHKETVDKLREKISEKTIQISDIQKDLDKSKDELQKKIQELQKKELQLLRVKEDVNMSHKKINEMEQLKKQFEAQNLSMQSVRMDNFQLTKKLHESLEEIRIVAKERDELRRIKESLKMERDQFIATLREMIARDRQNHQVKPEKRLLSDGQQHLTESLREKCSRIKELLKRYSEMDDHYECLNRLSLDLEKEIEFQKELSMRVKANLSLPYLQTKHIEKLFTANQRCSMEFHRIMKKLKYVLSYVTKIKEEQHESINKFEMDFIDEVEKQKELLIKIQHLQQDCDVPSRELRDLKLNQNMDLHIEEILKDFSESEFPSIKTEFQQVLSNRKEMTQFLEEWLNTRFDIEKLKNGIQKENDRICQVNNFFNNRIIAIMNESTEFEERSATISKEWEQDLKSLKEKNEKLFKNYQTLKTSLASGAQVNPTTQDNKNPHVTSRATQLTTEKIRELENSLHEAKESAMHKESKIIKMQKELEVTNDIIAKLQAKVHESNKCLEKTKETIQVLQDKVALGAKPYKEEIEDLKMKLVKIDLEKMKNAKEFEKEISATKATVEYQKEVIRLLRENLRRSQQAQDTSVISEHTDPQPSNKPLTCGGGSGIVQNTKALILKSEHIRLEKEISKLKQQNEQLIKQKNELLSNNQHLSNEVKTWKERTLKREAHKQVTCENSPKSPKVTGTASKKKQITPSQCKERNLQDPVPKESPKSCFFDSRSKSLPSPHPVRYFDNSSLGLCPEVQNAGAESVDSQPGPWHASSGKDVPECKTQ

[2] = biological target: T1, Centromere-associated protein E; assay: Inhibition of CENP-E (unknown origin) ATPase activity in presence 365 nm of light illumination
[3] = biological target: T1, Centromere-associated protein E; assay: Inhibition of CENP-E in human HeLa cells assessed as misaligned chromosome at 1 uM incubated for 2 hrs by DAPI staining based assay; format: cell-based

Compound | pIC50 (HeLa) | pIC50 [1] | pIC50 [2] | inhibition [3]
CNC(=O)[C@H](Cc1ccc(/N=N/c2c(C)nn(C3CCCCC3)c2C)cc1)NC(=O)c1ccc(OC(C)C)c(Cl)c1 | – | 6.98 | 7.01 | –
CNC(=O)[C@H](Cc1ccc(/N=N/c2c(C)nn(-c3cccc4ccccc34)c2C)cc1)NC(=O)c1ccc(OC(C)C)c(Cl)c1 | 5.00 | > 6.30 | < 6.30 | –
CNC(=O)[C@H](Cc1ccc(/N=N/c2c(C)nn(Cc3ccccc3)c2C)cc1)NC(=O)c1ccc(OC(C)C)c(Cl)c1 | < 5.00 | 6.69 | < 6.30 | –
CNC(=O)[C@H](Cc1ccc(/N=N/c2c(C)n[nH]c2C)cc1)NC(=O)c1ccc(OC(C)C)c(Cl)c1 | < 5.00 | < 6.30 | < 6.30 | –
CNC(=O)[C@H](Cc1ccc(/N=N/c2c(C)nn(-c3ccc(F)cc3F)c2C)cc1)NC(=O)c1ccc(OC(C)C)c(Cl)c1 | 5.00 | 6.47 | < 6.30 | –
CNC(=O)[C@H](Cc1ccc(/N=N/c2c(C)noc2C)cc1)NC(=O)c1ccc(OC(C)C)c(Cl)c1 | 6.42 | 7.70 | 6.78 | –
CNC(=O)[C@H](Cc1ccc(/N=N/c2c(C)nn(C3=NCCN3)c2C)cc1)NC(=O)c1ccc(OC(C)C)c(Cl)c1 | < 5.00 | 6.62 | 6.38 | –
CNC(=O)[C@H](Cc1ccc(/N=N/c2c(C)nn(-c3ccccn3)c2C)cc1)NC(=O)c1ccc(OC(C)C)c(Cl)c1 | 5.00 | 7.03 | 6.79 | –
CNC(=O)[C@H](Cc1ccc(NN=C(C(C)=O)C(C)=O)cc1)NC(=O)c1ccc(OC(C)C)c(Cl)c1 | – | – | – | inactive

Now from value to compound:

pIC50 (HeLa) | pIC50 [1] | pIC50 [2] | inhibition [3] | Compound
6.70 | 7.92 | 6.71 | – | CNC(=O)[C@H](Cc1ccc(/N=N/c2c(C)nn(CCO)c2C)cc1)NC(=O)c1ccc(OC(C)C)c(Cl)c1
< 5.00 | 6.91 | 6.80 | – | CNC(=O)[C@H](Cc1ccc(/N=N/c2c(C)nn(C(C)C)c2C)cc1)NC(=O)c1ccc(OC(C)C)c(Cl)c1
< 5.00 | 6.69 | 6.89 | – | CNC(=O)[C@H](Cc1ccc(/N=N/c2c(C)nn(C(=O)c3ccccc3)c2C)cc1)NC(=O)c1ccc(OC(C)C)c(Cl)c1
5.00 | 6.84 | 7.29 | – | CNC(=O)[C@H](Cc1ccc(/N=N/c2c(C)nn(C(N)=S)c2C)cc1)NC(=O)c1ccc(OC(C)C)c(Cl)c1
< 5.00 | 6.68 | 6.61 | – | CNC(=O)[C@H](Cc1ccc(/N=N/c2c(C)nn(C(C)=O)c2C)cc1)NC(=O)c1ccc(OC(C)C)c(Cl)c1
5.00 | 6.61 | 6.82 | – | CNC(=O)[C@H](Cc1ccc(/N=N/c2c(C)nn(C(=N)N)c2C)cc1)NC(=O)c1ccc(OC(C)C)c(Cl)c1
6.35 | 7.47 | 7.08 | – | CCCC(=O)n1nc(C)c(/N=N/c2ccc(C[C@H](NC(=O)c3ccc(OC(C)C)c(Cl)c3)C(=O)NC)cc2)c1C
< 5.00 | 6.42 | < 6.30 | – | CNC(=O)[C@H](Cc1ccc(/N=N/c2c(C)nn(C(=O)OC)c2C)cc1)NC(=O)c1ccc(OC(C)C)c(Cl)c1
6.72 | 7.80 | 6.43 | – | CNC(=O)[C@H](Cc1ccc(/N=N/c2c(C)nn(C)c2C)cc1)NC(=O)c1ccc(OC(C)C)c(Cl)c1
6.26 | 6.91 | 6.92 | – | CNC(=O)[C@H](Cc1ccc(/N=N/c2c(C)nn(C=O)c2C)cc1)NC(=O)c1ccc(OC(C)C)c(Cl)c1
6.34 | 7.82 | 6.89 | – | CNC(=O)[C@H](Cc1ccc(/N=N/c2c(C)nn(C(N)=O)c2C)cc1)NC(=O)c1ccc(OC(C)C)c(Cl)c1
